This is an account of results in PMC7386434 (Organic letters, 2010).

Holding throughout (format): cell-based
The subject of assay [1] is human embryonic lung fibroblast (HLF) cells. The experiment in a line: Antiproliferative activity, HLF cells. The note with it: read-out: GI50 HLF.
The test system of assay [2] is colorectal carcinoma cell line HCT-116. The experiment in a line: Antiproliferative activity, HCT-116 cells. The note with it: Homo sapiens, HCT-116, read-out: GI50 HCT-116.
In assay [3] the test system is human lung cancer cell line (A549). The assay can be described thus: Antiproliferative activity, A549 cells. To be noted: A549, read-out: GI50 A549.
In assay [4] the test system is human embryonic kidney cell line (HEK293). The experiment in a line: Antiproliferative activity, HEK293 cells. To be noted: HEK293, read-out: GI50 HEK293.

Structures are written as SMILES.

Take `CCCCCCCC(=O)SCC/C=C/[C@@H]1CC(=O)NCc2nc(cs2)C2=N[C@@](C)(CS2)C(=O)N[C@@H](C(C)C)C(=O)O1` [compound 1, largazole]: the GI50 amounted to 980 nM in assay [1], 80 nM in assay [2], 320 nM in assay [3] and 1360 nM in assay [4].

As usually defined, the GI50 is the concentration giving 50% growth inhibition.
